Data as given in US20230286999A1, “ORGANIC COMPOUND, LIGHT-RECEIVING DEVICE, LIGHT-EMITTING AND LIGHT-RECEIVING APPARATUS, AND ELECTRONIC DEVICE” (Semiconductor Energy Laboratory Co., Ltd., priority 2022, published 2023).

How the values were obtained:
[1] = Solubility evaluation using a liquid chromatography mass spectrometer; format: physicochemical; conditions: for Ratio of chromatogram peak areas (Peak area of material/Peak area of solvent × 100), considered as the solubility: 0.5 mg material in 0.25 mL chloroform + 2.5 mL acetonitrile, filtrate after 18 hours, DPAPhA: 1 mg in 1 mL toluene, 5-fold dilution with acetonitrile, 100% = completely dissolved; for solubility compared with FT2TDMN (in words): chloroform/acetonitrile sample
Description: In Example 3, the solubilities of materials that can be used for a photoelectric conversion device of one embodiment of the present invention are described. The solubilities of the materials were measured using a liquid chromatography mass spectrometer.
In Example 3, the solubilities of the organic compound (abbreviation: EtHex-FT2TDMN) represented by Structural Formula (100) in Embodiment 1 and the organic compound (abbreviation: EtHex-BisDCVTTt) represented by Structural Formula (200) in Embodiment 1 were evaluated. As a comparative example, FT2TDMN, which is a material having no branched alkyl, was evaluated. Furthermore, DPAPhA, which is a material with high solubility, was also evaluated as a reference sample.
The solubilities were measured using a liquid chromatography mass spectrometer. Specifically, chromatogram peak areas of the solvent and the material in the sample were obtained, the proportion of the peak area of the material to the peak area of the solvent was calculated, and the calculated value was considered as the solubility.
Note that the solubility of the case where the sample is completely dissolved is 100%. In Example 3, DPAPhA is a reference sample that is completely dissolved. In the case where a chromatogram peak is not detected and an MS spectrum is detected from a sample, the mass of the sample is regarded as being lower than the detection limit and the solubility is 0%.
The liquid chromatography mass spectrometer is constructed of ACQUITY H-Class (produced by Waters Corporation) and Xevo™ G2 Q-TOF MS (produced by Waters Corporation), and ACQUITY UPLC (registered trademark) BEH C8 Column ([…], 2.1×100 mm) (produced by Waters Corporation, hereinafter referred to as Column) was used as a column.
Samples of EtHex-FT2TDMN, EtHex-BisDCVTTt, and FT2TDMN used for solubility evaluation were formed. Specifically, in a reagent bottle made of glass were put 0.5 mg of the material and 0.25 mL of chloroform, and ultrasonic treatment was performed for 1 minute. To the obtained mixture, 2.5 mL of acetonitrile was added, and the resulting mixture was left still. After 18 hours, the resulting mixture was filtrated. With the use of the obtained filtrate as a sample, a solubility test for evaluating the solubility was performed using the liquid chromatography mass spectrometer.
Next, the DPAPhA sample used for solubility evaluation was formed. In a reagent bottle made of glass were put 1 mg of the material and 1 mL of toluene, and ultrasonic treatment was performed for 1 minute. Acetonitrile was added to the obtained solution to make a 5-fold dilution. The dilute solution was used as the sample and took the solubility test with the liquid chromatography mass spectrometer.
A measurement method for the solubility test for evaluating the solubility using the liquid chromatography mass spectrometer is described. As a mobile phase A and a mobile phase B, acetonitrile and a formic acid aqueous solution (0.1%) were used, respectively; the velocity of flow of a solvent was 0.5 mL/min; and the sample injection amount was 5 μL.
(§1) For 1 minute from the beginning of the measurement, the ratio of a mobile phase A to a mobile phase B was set to be 75:25. From 1 minute to 9 minutes, measurement was performed with a linear gradient to the ratio of 95:5. After a lapse of 10 minutes, measurement was performed for 5 minutes with the ratio of 95:5 held.
as §1, with “85:15.” for “75:25.”
For 1 minute from the beginning of the measurement, the ratio of a mobile phase A to a mobile phase B was set to be 40:60. From 1 minute to 9 minutes, measurement was performed with a linear gradient to the ratio of 95:5. […]

[2] = Thermogravimetry-differential thermal analysis (TG-DTA); format: physicochemical; conditions: 10° C./min
Description: (§2) The thermogravimetry-differential thermal analysis (TG-DTA) of EtHex-FT2TDMN was performed. The measurement was conducted using a high vacuum differential type differential thermal balance (TG-DTA 2410SA, manufactured by Bruker AXS K.K.). The measurement was performed under two conditions. The first measurement was performed at atmospheric pressure at a temperature rising rate of 10° C./min under a nitrogen stream (flow rate: 200 mL/min). The second measurement was performed at 10 Pa at a temperature rising rate of 10° C./min under a nitrogen stream (flow rate: 2 mL/min).
as §2, with “(TG-DTA) of EtHex-BisDCVTTt was performed.” for “(TG-DTA) of EtHex-FT2TDMN was performed.”, “was performed under atmospheric pressure” for “was performed at atmospheric pressure”

[3] = 10 Pa, nitrogen stream 2 mL/min
[4] = atmospheric pressure, nitrogen stream 200 mL/min

| Compound | Ratio of chromatogram peak areas (Peak area of material/Peak area of solvent × 100), considered as the solubility [1] | solubility compared with FT2TDMN (in words) [1] | temperature (decomposition temperature) at which the weight obtained by thermogravimetry was reduced by 5% [2, 3] | temperature (decomposition temperature) at which the weight obtained by thermogravimetry was reduced by 5% [2, 4] | chromatogram peak detection in solubility measurement (in words) ([1]; only an MS spectrum was detected, regarded as below detection limit, solubility 0%) |
| --- | --- | --- | --- | --- | --- |
| c1ccc(-c2c3ccccc3c(N(c3ccccc3)c3ccc(N(c4ccccc4)c4ccccc4)cc3)c3ccccc23)cc1 [DPAPhA, reference compound] | 100% |  |  |  |  |
| CCCCC(CC)Cc1cc(-c2cc3sc(-c4cc5sc(-c6cc(CC(CC)CCCC)c(C=C(C#N)C#N)s6)cc5s4)cc3s2)sc1C=C(C#N)C#N (centres unmarked) [EtHex-BisDCVTTt] | 3.5% | favorable solubilities | 295 °C | 362 °C |  |
| CCCCC(CC)Cc1cc(-c2cc3sc(-c4cc(CC(CC)CCCC)c(C=C(C#N)C#N)s4)cc3s2)sc1C=C(C#N)C#N (centres unmarked) [EtHex-FT2TDMN, 2,2′-[5,5′-(thieno[3,2-b]thiophene-2,5-diyl)bis(3-(2-ethylhexyl)thiophene-5,2-diyl)]bis(methan-1-yl-1-ylidene)dimalononitrile] | 18% | favorable solubilities | 244 °C | 325 °C |  |
| N#CC(C#N)=Cc1ccc(-c2cc3sc(-c4ccc(C=C(C#N)C#N)s4)cc3s2)s1 [FT2TDMN, reference compound] | 0% |  |  |  | no chromatogram peak was detected |
